Patent US20170275270A1, “BENZYL SUBSTITUTED INDAZOLES” (Bayer Pharma Aktiengesellschaft, priority 2014, published 2017)
Where a name gives a salt, the structure may show the parent alone. Read-outs that look alike come from different tables or passages of the source.

What was measured:
[1] = tested on: HeLa human cervical tumor cells; experiment: Proliferation assay (HeLa+Paclitaxel); conditions: read-out: Biological Assay 3: HeLa + Paclitaxel IC50, 3 nM paclitaxel, crystal violet;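 also: compounds at 0.001-10 µM added 4 h after paclitaxel, 92 h exposure, absorbance normalized to zero-point plate (0%) and untreated cells (100%), IC50 from 4-parameter fit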
[2] = molecular target: T1, catalytic domain of human Bub1 (amino acids 704-1085) (Homo sapiens, UniProt O43683); experiment: Bub1 kinase assay (TR-FRET); type: biochemical
T1 construct: catalytic domain of human Bub1 (amino acids 704-1085); His6 (N); made in house; host or cells: Hi5 insect cells
T1 sequence (O43683 704-1085): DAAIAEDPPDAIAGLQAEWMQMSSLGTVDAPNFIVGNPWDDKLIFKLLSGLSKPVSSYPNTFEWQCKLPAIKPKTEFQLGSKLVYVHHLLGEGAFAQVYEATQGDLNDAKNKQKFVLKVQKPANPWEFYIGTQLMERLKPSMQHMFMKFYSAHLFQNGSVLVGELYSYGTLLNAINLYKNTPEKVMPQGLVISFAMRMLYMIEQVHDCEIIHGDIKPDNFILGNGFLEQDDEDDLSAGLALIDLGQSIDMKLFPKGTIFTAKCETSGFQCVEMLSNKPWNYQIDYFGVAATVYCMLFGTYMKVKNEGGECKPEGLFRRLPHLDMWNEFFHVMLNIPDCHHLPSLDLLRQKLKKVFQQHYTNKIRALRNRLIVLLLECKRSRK
Summary of the method: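 TR-FRET read-out (Eu-anti-mouse IgG/anti-phosphoserine antibody to streptavidin-XL665 on biotinylated peptide) after EDTA stop and 1 h complex formation at 22° C. Kinase reaction ran 60 min at 22° C with 1:3.4 serial dilutions from 2 mM DMSO stocks. IC50 from 4-parameter logistic fit of normalized inhibition.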

[3] = tested on: HeLa; experiment: Proliferation assay (HeLa cell line); conditions: Homo sapiens, 96 h, read-out: Biological Assay 2: Proliferation assay (HeLa cell line) median IC50;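 also: crystal violet staining of cell number, scaled between a plate stained before dosing (0%) and cells left untreated (100%), compounds tested at 0.001-10 µM, IC50 via 4-parameter fit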
Protocol: Cultivated tumor cells (cells were ordered from ATCC, except HeLa-MaTu and HeLa-MaTu-ADR, which were ordered from EPO-GmbH, Berlin) were plated at a density of 1000 to 5000 cells/well, depending on the growth rate of the respective cell line, in a 96-well multititer plate in 200 μL of their respective growth medium supplemented 10% fetal calf serum. After 24 hours, the cells of one plate (zero-point plate) were stained with crystal violet (see below), while the medium of the other plates was replaced by fresh culture medium (200 μL), to which the test substances were added in various concentrations (0 μM, as well as in the range of 0.001-10 μM; the final concentration of the solvent dimethyl sulfoxide was 0.5%). The cells were incubated for 4 days in the presence of test substances. Cell proliferation was determined by staining the cells with crystal violet: the cells were fixed by adding 20 μL measuring point of an 11% glutaric aldehyde solution for 15 minutes at room temperature. After three washing cycles of the fixed cells with water, the plates were dried at room temperature. The cells were stained by adding 100 μL/measuring point of a 0.1% crystal violet solution (pH 3.0). After three washing cycles of the stained cells with water, the plates were dried at room temperature. The dye was dissolved by adding 100 μl/measuring point of a 10% acetic acid solution. […] The change of cell number, in percent, was calculated by normalization of the measured values to the absorbtion values of the zero-point plate (=0%) and the absorbtion of the untreated (0 μm) cells (=100%). The IC50 values were determined by means of a 4 parameter fit.

[4] = molecular target: Bub1 (Homo sapiens, UniProt O43683); experiment: Formation-Assay: phosphorylation status of histone 2A by inhibition of kinase activity of Bub1; type: cell-based; conditions: Biological Assay 4.1: H2A Formation IC50, co-treatment with Nocodazole 1 μg/ml, 16 h
Sequence of Bub1 (O43683 whole entry): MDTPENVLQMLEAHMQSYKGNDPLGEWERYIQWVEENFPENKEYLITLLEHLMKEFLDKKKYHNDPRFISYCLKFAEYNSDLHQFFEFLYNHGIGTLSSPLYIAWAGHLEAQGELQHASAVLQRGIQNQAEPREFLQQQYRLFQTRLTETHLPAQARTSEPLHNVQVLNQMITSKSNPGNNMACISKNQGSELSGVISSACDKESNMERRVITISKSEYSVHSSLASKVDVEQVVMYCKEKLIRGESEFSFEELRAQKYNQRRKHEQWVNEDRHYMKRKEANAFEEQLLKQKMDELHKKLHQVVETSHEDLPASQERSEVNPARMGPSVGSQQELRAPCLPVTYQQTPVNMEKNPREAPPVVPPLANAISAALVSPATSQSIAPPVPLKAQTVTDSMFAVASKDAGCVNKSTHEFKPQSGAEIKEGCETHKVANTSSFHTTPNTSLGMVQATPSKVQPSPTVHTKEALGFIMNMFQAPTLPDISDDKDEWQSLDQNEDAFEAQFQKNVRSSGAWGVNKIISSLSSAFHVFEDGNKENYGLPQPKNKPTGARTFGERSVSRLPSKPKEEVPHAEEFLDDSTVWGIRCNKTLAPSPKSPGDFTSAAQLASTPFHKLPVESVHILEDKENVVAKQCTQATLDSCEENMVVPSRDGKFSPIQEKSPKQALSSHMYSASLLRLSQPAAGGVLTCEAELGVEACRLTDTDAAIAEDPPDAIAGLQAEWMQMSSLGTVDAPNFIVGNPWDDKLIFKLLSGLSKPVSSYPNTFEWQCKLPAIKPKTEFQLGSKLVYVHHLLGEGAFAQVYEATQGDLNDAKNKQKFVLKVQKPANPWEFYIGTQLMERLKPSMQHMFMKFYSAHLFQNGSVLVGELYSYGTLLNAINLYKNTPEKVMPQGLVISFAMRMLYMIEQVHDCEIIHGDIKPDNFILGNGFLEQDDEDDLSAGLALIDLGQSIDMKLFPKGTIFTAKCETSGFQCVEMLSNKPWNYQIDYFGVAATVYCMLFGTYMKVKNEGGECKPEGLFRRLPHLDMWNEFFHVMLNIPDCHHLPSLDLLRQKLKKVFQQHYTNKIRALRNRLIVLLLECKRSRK
Protocol: Biological Assay 4.1: Formation-Assay
Cell-Based Mechanistic Assay: Changes of Phosphorylation Status of Histone 2A by Inhibition of Kinase Activity of Bub1
This assay determines the suppression of histone 2A phosphorylation by a Bub1 kinase inhibitor during co-treatment with Nocodazole. 25000 cells (cells were ordered from ATCC) were seeded in 96 well plate for 5 h at 37° C. Cells were treated with Nocodazole (1 μg/ml) and varying concentrations (between 3 nM and 10 μM) of test compounds for 16 h. Cells were fixed (20 min, Fixing solution R&D), washed three times with PBS and blocked with Odyssey blocking buffer before incubating with the primary antibody against phosphorylated H2A (5 μg/ml ABIN482721) overnight at 2-8° C. After washing, secondary IRDye-labeled antibody mix with cell stains was added for 1 h and washed again with PBS. Plates were scanned with LiCor Odyssey Infrared Imager CLx at 800 nm for P-H2A and at 700 nm for cell stains Draq5/Sapphire. The quotient of 800 nm and 700 nm for Nocodazole only treated cells was set as 100% and the quotient of 800 nm and 700 nm of untreated cells was set as 0%.
Histone H2A is an immediate intracellular substrate of Bub1 kinase. Determination of the phosphorylation status of Histone H2A provides a direct measure of the intracellular activity of Bub1 kinase.

[5] = Biological Assay 1: Bub1 kinase assay median IC50, 10 μM ATP
[6] = 10 μM ATP, read-out: Biological Assay 1: Bub1 kinase assay median IC50

SMILES	IC50 [1]	IC50 [2, 5]	IC50 [3]	IC50 [4]	IC50 [2, 6]
CCOc1cc(F)c(Cn2nc(-c3ncc(CC[S@@+](C)[O-])c(Nc4ccncc4)n3)c3ccccc32)c(F)c1 [Example 2-1-1, 2-[1-(4-ethoxy-2,6-difluorobenzyl)-1H-indazol-3-yl]-5-{2-[(R)-methylsulfinyl]ethyl}-N-(pyridin-4-yl)pyrimidin-4-amine]	0.15 µM	0.005 µM	3.6 µM	1.4 µM	–
C[S@@+]([O-])CCCc1cnc(-c2nn(Cc3c(F)cc(OCCO)cc3F)c3ccccc23)nc1Nc1ccncc1 [Example 2-4-3, 2-[3,5-difluoro-4-({3-[5-{3-[(R)-methylsulfinyl]propyl}-4-(pyridin-4-ylamino)pyrimidin-2-yl]-1H-indazol-1-yl}methyl)phenoxy]ethanol]	> 10 µM	0.94 µM	> 10 µM	1 µM	–
CCOc1cc(F)c(Cn2nc(-c3ncc(CN4CC(F)(F)C4)c(Nc4ccncc4)n3)c3ccccc32)c(F)c1 [Example 2-2-19, 5-[(3,3-difluoroazetidin-1-yl)methyl]-2-[1-(4-ethoxy-2,6-difluorobenzyl)-1H-indazol-3-yl]-N-(pyridin-4-yl)pyrimidin-4-amine]	0.63 µM	0.028 µM	5.4 µM	1.8 µM	–
CCOc1cc(F)c(Cn2nc(-c3ncc(CC(C)(C)N)c(Nc4ccncc4)n3)c3ccccc32)c(F)c1 [Example 2-9-18, 5-(2-amino-2-methylpropyl)-2-[1-(4-ethoxy-2,6-difluorobenzyl)-1H-indazol-3-yl]-N-(pyridin-4-yl)pyrimidin-4-amine, salt with hydrochloric acid]	0.17 µM	–	5.5 µM	0.0067 µM	0.015 µM
CCOc1cc(F)c(Cn2nc(-c3nc4c(c(Nc5ccnc(C(F)F)c5)n3)CCCC4)c3ccccc32)c(F)c1 [Example 2-19-19, N-[2-(difluoromethyl)pyridin-4-yl]-2-[1-(4-ethoxy-2,6-difluorobenzyl)-1H-indazol-3-yl]-5,6,7,8-tetrahydroquinazolin-4-amine]	0.69 µM	–	> 10 µM	0.0073 µM	0.019 µM
CCOc1cc(F)c(Cn2nc(-c3ncc(C4CCN(CC(F)(F)F)CC4)c(Nc4ccnc(NC(C)=O)c4)n3)c3ccccc32)c(F)c1 [Example 2-20-1, N-[4-({2-[1-(4-ethoxy-2,6-difluorobenzyl)-1H-indazol-3-yl]-5-[1-(2,2,2-trifluoroethyl)piperidin-4-yl]pyrimidin-4-yl}amino)pyridin-2-yl]acetamide]	0.13 µM	0.017 µM	> 10 µM	0.11 µM	–
CCOc1cc(F)c(Cn2nc(-c3ncc(CCN)c(Nc4ccnc(C(F)(F)F)c4)n3)c3ccccc32)c(F)c1 [Example 2-9-11, 5-(2-aminoethyl)-2-[1-(4-ethoxy-2,6-difluorobenzyl)-1H-indazol-3-yl]-N-[2-(trifluorometh-yl)pyridin-4-yl]pyrimidin-4-amine, salt with hydrochloric acid]	0.11 µM	–	1.1 µM	0.0028 µM	0.36 µM
CCOc1cc(F)c(Cn2nc(-c3ncc(CCCN4CCOCC4)c(Nc4ccncc4C(F)(F)F)n3)c3ccccc32)c(F)c1 [Example 2-2-14, 2-[1-(4-ethoxy-2,6-difluorobenzyl)-1H-indazol-3-yl]-5-[3-(morpholin-4-yl)propyl]-N-[3-(trifluoromethyl)pyridin-4-yl]pyrimidin-4-amine]	0.14 µM	0.13 µM	7.8 µM	3.9 µM	–
CCOc1cc(F)c(Cn2nc(-c3ncc(C4CCN(CCC(F)(F)F)CC4)c(Nc4ccncc4OC)n3)c3ccccc32)c(F)c1 [Example 2-22-1, 2-[1-(4-ethoxy-2,6-difluorobenzyl)-1H-indazol-3-yl]-N-(3-methoxypyridin-4-yl)-5-[1-(3,3,3-trifluoropropyl)piperidin-4-yl]pyrimidin-4-amine]	0.14 µM	0.035 µM	3.6 µM	0.072 µM	–
Cc1cc(Nc2nc(-c3nn(Cc4c(F)cc(OCCO)cc4F)c4ccccc34)nc3c2CCC3)ccn1 [Example 2-4-12, 2-{3,5-difluoro-4-[(3-{4-[(2-methylpyridin-4-yl)amino]-6,7-dihydro-5H-cyclopenta[d]pyrimidin-2-yl}-1H-indazol-1-yl)methyl]phenoxy}ethanol]	3.3 µM	–	1.1 µM	2.3 µM	0.048 µM
CCOc1cc(F)c(Cn2nc(-c3ncc(CC4CNC4)c(Nc4ccnc(NC(C)=O)c4)n3)c3ccccc32)c(F)c1 [Example 2-9-7, N-[4-({5-(azetidin-3-ylmethyl)-2-[1-(4-ethoxy-2,6-difluorobenzyl)-1H-indazol-3-yl]pyrimidin-4-yl}amino)pyridin-2-yl]acetamide, salt with hydrochloric acid]	0.17 µM	0.0074 µM	10 µM	0.0067 µM	–
CCOc1cc(F)c(Cn2nc(-c3nc(Nc4ccnc(C)n4)cc(C(F)(F)F)n3)c3ccccc32)c(F)c1 [Example 2-12-83, 2-[1-(4-ethoxy-2,6-difluorobenzyl)-1H-indazol-3-yl]-N-(2-methylpyrimidin-4-yl)-6-(trifluoromethyl)pyr-imidin-4-amine]	0.35 µM	> 20 µM	> 10 µM	0.031 µM	–
CCOc1cc(F)c(Cn2nc(-c3nc(CN4CCOCC4)cc(Nc4ccncc4)n3)c3ccccc32)c(F)c1 [Example 2-12-12, 2-[1-(4-ethoxy-2,6-difluorobenzyl)-1H-indazol-3-yl]-6-(morpholin-4-ylmethyl)-N-(pyridin-4-yl)pyrimidin-4-amine]	< 0.1 µM	–	3.6 µM	0.0036 µM	0.0068 µM
CCOc1cc(F)c(Cn2nc(-c3nc4c(c(Nc5ccnc(OC)c5)n3)CCC4)c3ccccc32)c(F)c1 [Example 2-19-7, 2-[1-(4-ethoxy-2,6-difluorobenzyl)-1H-indazol-3-yl]-N-(2-methoxypyridin-4-yl)-6,7-dihydro-5H-cyclopenta[d]pyrimidin-4-amine]	0.54 µM	–	> 10 µM	0.021 µM	0.057 µM
Cc1nccc(Nc2nc(-c3nn(Cc4c(F)cc(OCCO)cc4F)c4ccccc34)nc3c2CCC3)n1 [Example 2-6-18, 2-{3,5-difluoro-4-[(3-{4-[(2-methylpyrimidin-4-yl)amino]-6,7-dihydro-5H-cyclopenta[d]pyrimidin-2-yl}-1H-indazol-1-yl)methyl]phenoxy}ethanol]	0.09 µM	0.03 µM	> 10 µM	0.00079 µM	–
COCCOc1cc(F)c(Cn2nc(-c3nc4c(c(Nc5ccnc(C)n5)n3)CC(C)(C)C4)c3ccccc32)c(F)c1 [Example 2-12-61, 2-{1-[2,6-difluoro-4-(2-methoxyethoxy)benzyl]-1H-indazol-3-yl}-6,6-dimethyl-N-(2-methylpyrimidin-4-yl)-6,7-dihydro-5H-cyclopenta[d]pyrimidin-4-amine]	0.13 µM	0.074 µM	> 10 µM	2.4 µM	–
CCOc1cc(F)c(Cn2nc(-c3nc4c(c(Nc5ccncc5)n3)CSC4)c3ccccc32)c(F)c1 [Example 2-19-1, 2-[1-(4-ethoxy-2,6-difluorobenzyl)-1H-indazol-3-yl]-N-(pyridin-4-yl)-5,7-dihydrothieno[3,4-d]pyrimidin-4-amine]	0.35 µM	–	1.2 µM	0.35 µM	0.014 µM
CCOc1cc(F)c(Cn2nc(-c3ncc(C4CCN(CC(F)(F)F)CC4)c(Nc4ccncn4)n3)c3ccccc32)c(F)c1 [Example 2-20-3, 2-[1-(4-ethoxy-2,6-difluorobenzyl)-1H-indazol-3-yl]-N-(pyrimidin-4-yl)-5-[1-(2,2,2-trifluoroethyl)piperidin-4-yl]pyrimidin-4-amine]	0.98 µM	0.026 µM	> 10 µM	0.0022 µM	–
CCOc1cc(F)c(Cn2nc(-c3nc4c(c(Nc5ccnc(C)n5)n3)CCC4)c3ccccc32)c(F)c1 [Example 2-12-54, 2-[1-(4-ethoxy-2,6-difluorobenzyl)-1H-indazol-3-yl]-N-(2-methylpyrimidin-4-yl)-6,7-dihydro-5H-cyclopenta[d]pyrimidin-4-amine]	0.18 µM	0.031 µM	3.3 µM	0.014 µM	–
